Measured values taken from patent publication US8569336B2, “Compounds for the treatment of inflammatory disorders” (priority 2008, dated 2013).
Where two headings read alike, the source gives them in different places.

Assays:
[1] = target: T1, purified catalytic domain of recombinant human TACE (rhTACEc) (Homo sapiens, UniProt P78536, N452Q/S266A); assay: TACE kinetic assay: cleavage of internally quenched peptide substrate TNF-FRET 2 (Ki); type: biochemical; conditions: TNF-FRET 2 substrate
T1 construct: 6xHis (C); made in house; host or cells: baculovirus/Hi5 insect cells
T1 sequence (P78536 215-477 S266A/N452Q): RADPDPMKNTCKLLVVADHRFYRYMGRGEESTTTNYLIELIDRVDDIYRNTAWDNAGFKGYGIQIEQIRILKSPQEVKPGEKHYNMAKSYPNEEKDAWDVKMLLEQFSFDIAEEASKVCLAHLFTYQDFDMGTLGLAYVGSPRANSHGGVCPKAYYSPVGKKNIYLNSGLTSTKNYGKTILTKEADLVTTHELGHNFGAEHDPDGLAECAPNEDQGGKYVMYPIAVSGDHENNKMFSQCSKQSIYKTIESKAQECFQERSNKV

[2] = tested on: TNF-α production from human whole blood; assay: Inhibition of TNF-α production from human whole blood (hWBA), LPS stimulated, ELISA; type: cell-based; conditions: TNF-α by ELISA, read-out: hWBA (IC50)
[3] = Homo sapiens, human whole blood diluted 1:1, LPS stimulated
[4] = Homo sapiens, 3.5 h, human whole blood diluted 1:1, LPS stimulated, 3.5 h
[5] = Homo sapiens, LPS-stimulated human whole blood

| SMILES | Ki ([1]; read-out: Ki) | IC50 [2, 3] | IC50 [2, 5] | also measured |
| --- | --- | --- | --- | --- |
| CCOC(=O)c1ccc2cc([C@]3(CN4Cc5ccc(OC)cc5C4=O)NC(=O)NC3=O)oc2c1 [Compound 2409] | 0.33 nM | 1870 nM |  |  |
| COc1ccc2c(c1)C(=O)N(C[C@@]1(c3cc4cc(-c5ccc(N(C)C)nc5)ccc4o3)NC(=O)NC1=O)C2 [Compound 2197] | 0.849 nM |  |  | IC50 ([2]; human whole blood diluted 1:1, LPS stimulated, 3.5 h): 2710 nM |
| COc1ccc2c(c1)C(=O)N(C[C@@]1(c3cc4nc(-c5cnc(N(C)C)nc5)ccc4o3)NC(=O)NC1=O)C2 [Compound 2152] | 0.374 nM |  |  | IC50 [2, 4]: 675 nM |
| COc1ccc2c(c1)C(=O)N(C[C@@]1(c3cc4c(o3)CCN(C(=O)N(C)C)C4)NC(=O)NC1=O)C2 [Compound 319] | 1.83 nM |  | 501 nM |  |
| COc1ccc2c(c1)C(=O)N(C[C@@]1(c3cc4cc(N5C(=O)CNC5=O)ccc4o3)NC(=O)NC1=O)C2 [Compound 2225] | 0.564 nM |  |  | IC50 [2, 4]: 677 nM |
| COc1ccc2c(c1)C(=O)N(C[C@@]1(c3cc4c(C(F)(F)F)nc(N)nc4o3)NC(=O)NC1=O)C2 [Compound 2305] | 0.568 nM | 1420 nM |  |  |
| COc1ccc2c(c1)C(=O)N(C[C@@]1(c3cc4cnc(Cl)nc4o3)NC(=O)NC1=O)C2 [Compound 2301] | 0.36 nM | 532 nM |  |  |
| CCN1CCN(c2ccc3oc(C4(CN5CCc6ccsc6C5=O)NC(=O)NC4=O)cc3n2)CC1 (centres unmarked) [Compound 2496] | 0.66 nM | 314 nM |  |  |
| CCNc1nnc(-c2ccc3cc([C@]4(CN5Cc6ccc(OC)cc6C5=O)NC(=O)NC4=O)oc3c2)o1 [Compound 2193] | 0.253 nM |  |  | IC50 [2, 4]: 170 nM |
| COc1ccc2c(c1)C(=O)N(C[C@@]1(c3cc4cc5c(cc4o3)[C@@H](NC(=O)OC(C)(C)C)CC5)NC(=O)NC1=O)C2 [Compound 2507] | 1.43 nM | 4160 nM |  |  |
| CCN1CCN(C(=NO)c2cnc3cc([C@]4(CN5Cc6ccc(OC)cc6C5=O)NC(=O)NC4=O)oc3c2)CC1 [Compound 2468] |  | 342 nM |  | Ki ([1]; Ki): 1.44 nM |
| COc1ccc2c(c1)C(=O)N(C[C@@]1(c3cc4cc(C(N)=O)c(C)cc4o3)NC(=O)NC1=O)C2 [Compound 2425] | 0.51 nM | 992 nM |  |  |
| COc1ccc2c(c1)C(=O)N(C[C@@]1(c3cc4cncc(Br)c4o3)NC(=O)NC1=O)C2 [Compound 2303] | 0.312 nM | 630 nM |  |  |
| COc1ccc2c(c1)C(=O)N(C[C@@]1(c3cc4nc(N5CCC(OC)(OC)CC5)ccc4o3)NC(=O)NC1=O)C2 [Compound 2109] | 0.75 nM |  |  | IC50 [2, 4]: 161 nM |
| CSc1ccc2c(c1)C(=O)N(C[C@@]1(c3cc4cnccc4o3)NC(=O)NC1=O)C2 [Compound 309] | 0.377 nM |  | 662 nM |  |
| COc1ccc2c(c1)C(=O)N(C[C@@]1(c3cc4cc(C(=O)N5CCC(N(C)C)CC5)c(F)cc4o3)NC(=O)NC1=O)C2 [Compound 1277] | 0.62 nM |  |  | IC50 [2, 4]: 471 nM |
| COc1ccc2c(c1)C(=O)N(C[C@@]1(c3cc4nc(-c5nnn[nH]5)ccc4o3)NC(=O)NC1=O)C2 [Compound 2167] |  |  |  | Ki ([1]; Ki): 0.351 nM; IC50 [2, 4]: 289 nM |
| COc1ccc2c(c1)C(=O)N(C[C@@]1(c3cc4ccc(C(=O)N5CCNC(=O)C5)cc4o3)NC(=O)NC1=O)C2 [Compound 2422] |  | 519 nM |  | Ki ([1]; Ki): 0.68 nM |
| COc1ccc2c(c1F)C(=O)N(C[C@@]1(c3cc4nc(-c5ccnc(N6CCN(C(=O)C(F)(F)F)CC6)c5)ccc4o3)NC(=O)NC1=O)C2 [Compound 1718] | 0.48 nM |  | 299 nM |  |
| COc1ccc2c(c1)C(=O)N(C[C@@]1(c3cc4nc(C(=O)NCCN(C)C)ccc4o3)NC(=O)NC1=O)C2 [Compound 1927] | 0.87 nM |  | 567 nM |  |
| COc1ccc2c(c1)C(=O)N(C[C@@]1(c3cc4ncc(C(N)=O)cc4o3)NC(=O)NC1=O)C2 [Compound 2459] |  | 173 nM |  | Ki ([1]; Ki): 0.367 nM |
| COc1ccc2c(c1)C(=O)N(C[C@@]1(c3ccc(C#N)cc3)NC(=O)NC1=O)C2 [Compound 2477] | 1.41 nM | 3480 nM |  |  |
| COc1ccc2c(c1F)C(=O)N(C[C@@]1(c3cc4nc(N5CCN(C)CC5)c(F)cc4o3)NC(=O)NC1=O)C2 [Compound 1710] | 1.08 nM |  | 218 nM |  |
| CCN1CCN(c2ccc3oc([C@]4(CN5Cc6ccc(OC)c(F)c6C5=O)NC(=O)NC4=O)cc3n2)C[C@H]1C [Compound 1293] | 0.79 nM |  |  | IC50 [2, 4]: 112 nM |
| COc1ccc2c(c1)C(=O)N(C[C@@]1(c3cc4ccc(OC)cc4o3)NC(=O)NC1=O)C2 [Compound 2187] | 0.989 nM |  |  | IC50 [2, 4]: 4030 nM |
| COC(=O)c1ccc2oc([C@]3(CN4Cc5ccc(OC)c(F)c5C4=O)NC(=O)NC3=O)cc2n1 [Compound 1903] | 0.48 nM |  | 248 nM |  |
| Cc1ccc2c(c1)C(=O)N(C[C@@]1(c3cc4ncccc4o3)NC(=O)NC1=O)C2 [Compound 1740] |  |  | > 10000 nM | Ki ([1]; Ki): 2.91 nM |
| COc1ccc2c(c1F)C(=O)N(C[C@@]1(c3cc4c(C)nc(C)cc4o3)NC(=O)NC1=O)C2 [Compound 202] | 0.568 nM |  | 553 nM |  |

| SMILES | Ki ([1]; read-out: Ki) | IC50 [2, 3] | IC50 [2, 5] | also measured |
| --- | --- | --- | --- | --- |
| COc1ccc2c(c1)C(=O)N(C[C@@]1(c3cc4c(o3)CCN(C(N)=O)C4)NC(=O)NC1=O)C2 [Compound 318] | 5.62 nM |  | 646 nM |  |
| COc1ccc2c(c1F)C(=O)N(C[C@@]1(c3cc4cc(-c5cc(=O)[nH]c(N)n5)ccc4o3)NC(=O)NC1=O)C2 [Compound 300] | 0.538 nM |  | 364 nM |  |
| O=C1NC(=O)[C@](CN2CCc3ccsc3C2=O)(c2cc3ncccc3o2)N1 [Compound 2494] | 1.25 nM | 2250 nM |  |  |
| O=C1NC(=O)C(CN2Cc3ccccc3C2=O)(c2ccc(Br)cc2)N1 (centres unmarked) [Compound 1296] | 7 nM |  |  | IC50 [2, 4]: > 10000 nM |
| COc1ccc2c(c1)C(=O)N(C[C@@]1(c3cc4ncc(CO)cc4o3)NC(=O)NC1=O)C2 [Compound 1941] | 0.59 nM |  | 609 nM |  |
| COc1ccc2c(c1F)C(=O)N(C[C@@]1(c3ccc(-c4cccnc4)o3)NC(=O)NC1=O)C2 [Compound 314] | 0.444 nM |  | 536 nM |  |
| COc1ccc2c(c1F)C(=O)N(C[C@]1(C3=CC(c4ccccc4)N(C)O3)NC(=O)NC1=O)C2 (some centres unmarked) [Compound 1525] | 3.2 nM |  | ≥ 100000 nM |  |
| COCCNC(=O)c1ccc2cc([C@]3(CN4Cc5ccc(OC)cc5C4=O)NC(=O)NC3=O)oc2c1 [Compound 2413] | 0.6 nM | 300 nM |  |  |
| COc1ccc2c(c1F)C(=O)N(C[C@@]1(c3cc4nc(Nc5cn[nH]c5)ccc4o3)NC(=O)NC1=O)C2 [Compound 1730] | 0.6 nM |  | 175 nM |  |
| COc1ccc2c(c1)C(=O)N(C[C@@]1(c3cc4nc(Nc5nccc(O)n5)ccc4o3)NC(=O)NC1=O)C2 [Compound 2144] | 0.194 nM |  |  | IC50 [2, 4]: 267 nM |
| COc1ccc2c(c1F)C(=O)N(C[C@@]1(c3cc4nc(N(CCN(C)C)c5cn[nH]c5)ccc4o3)NC(=O)NC1=O)C2 [Compound 1714] | 0.85 nM |  | 271 nM |  |
| COc1ccc2c(c1)C(=O)N(C[C@@]1(c3cc4nc(C(=O)NC5CC5)ccc4o3)NC(=O)NC1=O)C2 [Compound 2464] | 0.115 nM | 367 nM |  |  |
| COc1ccc2c(c1)C(=O)N(C[C@@]1(c3cc4ccc(C(N)=O)cc4o3)NC(=O)NC1=O)C2 [Compound 2408] | 0.49 nM | 132 nM |  |  |
| COc1ccc2c(c1)C(=O)N(C[C@@]1(c3cc4nc(-c5cc(O)cc(-c6ccncc6)c5)ccc4o3)NC(=O)NC1=O)C2 [Compound 1308] | 1.39 nM |  | 2950 nM |  |
| CCOC(=O)NCc1ccc2oc([C@]3(CN4Cc5ccc(OC)cc5C4=O)NC(=O)NC3=O)cc2c1 [Compound 2484] |  | 1690 nM |  | Ki ([1]; Ki): 0.49 nM |
| COc1ccc2c(c1F)C(=O)N(C[C@@]1(c3cc4cc(F)c(C)nc4o3)NC(=O)NC1=O)C2 [Compound 1313] | 0.83 nM |  | 686 nM |  |
| COc1ccc2c(c1)C(=O)N(C[C@@]1(c3ccc(C(=O)NS(C)(=O)=O)cc3)NC(=O)NC1=O)C2 [Compound 2406] | 5.38 nM | 7110 nM |  |  |
| COc1ccc2c(c1)C(=O)N(C[C@@]1(c3cc4nc(Nc5cn[nH]c5)ccc4o3)NC(=O)NC1=O)C2 [Compound 1729] | 0.43 nM |  | 211 nM |  |
| COc1ccc2c(c1)C(=O)N(C[C@@]1(c3cc4ccc(C(=O)N(C)C)cc4o3)NC(=O)NC1=O)C2 [Compound 2414] | 0.41 nM | 990 nM |  |  |
| COc1ccc2c(c1)C(=O)N(C[C@@]1(c3cc4cc(C5(C)NC(=O)NC5=O)cc(C)c4o3)NC(=O)NC1=O)C2 (some centres unmarked) [Compound 2211] | 0.216 nM |  |  | IC50 [2, 4]: 1550 nM |
| COc1ccc2c(c1)C(=O)N(C[C@@]1(c3cc4nc(C(=O)O)ccc4o3)NC(=O)NC1=O)C2 [Compound 1514] | 0.7 nM |  | 195 nM |  |
| COc1ccc2c(c1)C(=O)N(C[C@@]1(c3cc4cc(/C=N/O)ccc4o3)NC(=O)NC1=O)C2 [Compound 2420] | 0.4 nM | 328 nM |  |  |
| COc1ccc2c(c1)C(=O)N(C[C@@]1(c3cc4cnc(-c5c(C)noc5C)cc4o3)NC(=O)NC1=O)C2 [Compound 2288] | 0.721 nM | 696 nM |  |  |
| COc1ccc2c(c1)C(=O)N(C[C@@]1(c3cc4ccc(C(=O)N5CCN(C)CC5)cc4o3)NC(=O)NC1=O)C2 [Compound 2423] | 1.01 nM | 1090 nM |  |  |
| COc1ccc2c(c1)C(=O)N(C[C@@]1(c3oc4cccnc4c3-c3ncccc3O)NC(=O)NC1=O)C2 [Compound 1940] | 0.75 nM |  | 659 nM |  |
| COc1ccc2c(c1)C(=O)N(C[C@@]1(c3cc4nc(N5CCCNC5=O)ccc4o3)NC(=O)NC1=O)C2 [Compound 2134] | 0.467 nM |  |  | IC50 [2, 4]: 115 nM |
| COc1ccc2c(c1)C(=O)N(C[C@@]1(c3cc4nc(C(=O)NC5CC5)ccc4o3)NC(=O)NC1=O)C2 [Compound 1926] | 0.12 nM |  | 367 nM |  |
